Experimental findings from US20060211733A1, “Methods of preventing and treating opioid bowel dysfunction” (Adolor Corporation, priority 2005, published 2006) are described below.

The series relates to opioid-induced bowel dysfunction in non-malignant pain subjects. In words: six-week, randomized, double-blind, placebo-controlled study of three alvimopan dosage regimens. The class given is in vivo, human. As for the experimental part:
A six-week, randomize, double-blind, placebo-controlled study was conducted to evaluate three dosage regimens for [[(2S)-2-[[(3R,4R)-4-(3-hydroxyphenyl)-3,4-dimethylpiperidin-1-yl]methyl]-3-phenylpropanoyl]amino]acetic acid dihydrate (alvimopan) for the treatment of opioid-induced bowel dysfunction in non-malignant pain subjects, including an evaluation of the improvement of spontaneous bowel movement (SBM) frequency compared to placebo while maintaining an acceptable tolerability profile.
Subjects meeting the initial screening criteria for the study population, and who had been administered chronic opioid therapy for non-malignant pain, were selected.

Each structure is given as a SMILES string.

As for `C[C@H]1CN(C[C@H](Cc2ccccc2)C(=O)NCC(=O)O)CC[C@@]1(C)c1cccc(O)c1.O.O` [alvimopan, [[(2S)-2-[[(3R,4R)-4-(3-hydroxyphenyl)-3,4-dimethylpiperidin-1-yl]methyl]-3-phenylpropanoyl]amino]acetic acid dihydrate], under “0.5 mg BID”, the efficacy entry is reported as “comparable to 1 mg QD or 1 mg BID” and the safety profile entry is listed as “comparable to the placebo”. The “primary and key secondary endpoints (spontaneous bowel movement frequency) compared to placebo” value (all three doses (0.5 mg BID, 1 mg QD, 1 mg BID), subjects on chronic opioid therapy) was “significantly better, both clinically and statistically, than the placebo”. Also, the tolerability entry (all treatment arms) is on record as “well-tolerated”. The analgesic antagonism result (based on changes in pain scores or opioid consumption during the study) is recorded as “no evidence of analgesic antagonism”. Further, where the note is “non-treatment follow-up period”, the “rebound post active treatment” value was “no evidence of rebound”. For the same compound, the tachyphylaxis result (over six-week treatment period) was “no evidence of tachyphylaxis”. Moreover, the “onset and duration of treatment effects” value (six-week treatment period) was “significant at week 1 and were sustained over the entire six-week treatment period”.
